Biological target: T1, TAOK2 (TAO1) (Homo sapiens, UniProt Q9UL54)
T1 construct: purchased Thermo Fisher Scientific (Life Technologies) SelectScreen
Experiment: SelectScreen Z'LYTE
Assay type: biochemical
How it was run: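 Percent values come from Thermo SelectScreen profiling of NU5455, combining activity and binding assays. CSF1R was run in Z'LYTE format at Km app ATP, and CAMK1 in Adapta format with ATP listed at 10.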

T1 sequence (Q9UL54 whole entry): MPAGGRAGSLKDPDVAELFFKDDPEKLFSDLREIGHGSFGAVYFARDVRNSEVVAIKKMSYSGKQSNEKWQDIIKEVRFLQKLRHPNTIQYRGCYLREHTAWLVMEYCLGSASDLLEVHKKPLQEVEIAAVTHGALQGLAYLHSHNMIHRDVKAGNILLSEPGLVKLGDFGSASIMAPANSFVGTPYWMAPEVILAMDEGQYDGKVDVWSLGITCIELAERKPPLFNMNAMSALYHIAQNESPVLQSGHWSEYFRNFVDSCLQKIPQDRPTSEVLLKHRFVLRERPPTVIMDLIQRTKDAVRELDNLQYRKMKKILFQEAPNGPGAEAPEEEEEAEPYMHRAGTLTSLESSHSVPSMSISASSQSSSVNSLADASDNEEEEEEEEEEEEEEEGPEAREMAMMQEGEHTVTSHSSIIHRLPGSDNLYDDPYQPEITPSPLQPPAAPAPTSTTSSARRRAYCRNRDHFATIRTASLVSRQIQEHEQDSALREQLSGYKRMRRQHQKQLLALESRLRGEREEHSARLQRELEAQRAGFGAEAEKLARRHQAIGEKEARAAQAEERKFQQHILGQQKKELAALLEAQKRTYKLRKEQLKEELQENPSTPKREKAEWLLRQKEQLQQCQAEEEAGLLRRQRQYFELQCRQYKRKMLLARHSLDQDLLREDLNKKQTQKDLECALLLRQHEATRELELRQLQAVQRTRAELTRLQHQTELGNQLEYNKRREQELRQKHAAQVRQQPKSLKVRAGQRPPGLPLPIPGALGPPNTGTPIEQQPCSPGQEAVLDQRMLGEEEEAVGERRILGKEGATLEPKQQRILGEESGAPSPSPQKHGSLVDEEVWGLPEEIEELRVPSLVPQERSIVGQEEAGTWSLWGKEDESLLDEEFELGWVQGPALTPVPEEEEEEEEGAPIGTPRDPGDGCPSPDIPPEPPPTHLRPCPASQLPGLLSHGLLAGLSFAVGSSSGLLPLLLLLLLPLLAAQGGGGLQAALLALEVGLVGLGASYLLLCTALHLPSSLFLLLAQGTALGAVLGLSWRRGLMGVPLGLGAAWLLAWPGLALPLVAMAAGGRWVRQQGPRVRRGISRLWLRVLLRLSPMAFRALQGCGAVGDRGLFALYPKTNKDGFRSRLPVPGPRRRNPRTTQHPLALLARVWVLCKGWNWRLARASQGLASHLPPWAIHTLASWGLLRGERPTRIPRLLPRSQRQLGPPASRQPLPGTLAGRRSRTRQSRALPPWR

For CN(C(=O)CN1CCOCC1)c1ccc2sc3c(-c4cccc5c(=O)cc(N6CC7CCC(C6)O7)oc45)cccc3c2c1 [NU5455], the inhibition at 1 µM was -5.1%.

Source: PMC6934184, “Selective DNA-PKcs inhibition extends the therapeutic index of localized radiotherapy and chemotherapy” (The Journal of Clinical Investigation, 2019)
